≈ marks a conversion by molar mass, not a printed value.
Assays:
C. albicans ATCC 90028 = test: Antifungal activity: MIC/MFC, disc-diffusion; type: cell-based, Candida albicans; conditions: Candida albicans, ATCC90028; read-out: MIC
Procedure: (§1) Direct antimicrobial activity was determined against the following standard strains: (1) Gram-positive cocci: methicillin-sensitive Staphylococcus aureus ATCC 6538P (MSSA), methicillin-resistant S. aureus subsp. aureus ATCC 43300 (MRSA), S. epidermidis ATCC 12228, Enterococcus faecium ATCC 6057, E. faecalis ATCC 29212, Bacillus subtilis ATCC 6633; (2) Gram-negative bacteria from Enterobacteriales order: Klebsiella pneumoniae ATCC 13883, Escherichia coli ATCC 25922, Enterobacter cloacae DSM 6234, Proteus mirabilis ATCC 12453, Serratia marcescens ATCC 13880; (3) Gram-negative non-fermentative rods: Acinetobacter baumannii ATCC 19606, Pseudomonas aeruginosa ATCC 27853, Stenotrophomonas maltophilia ATCC 12714, S. maltophilia ATCC 13637, Burkholderia cepacia ATCC 25416, Bordetella bronchiseptica ATCC 4617; (4) yeasts: Candida albicans ATCC 90028, C. krusei ATCC 6258, C. parapsilosis ATCC 22019, C. tropicalis (Castellani) Berkhout ATCC 750, C. tropicalis IBA 171, C. guilliermondii IBA 155, and Saccharomyces cerevisiae ATCC 9763. Moreover, 5 clinical strains of methicillin-resistant S. aureus were also included: NMI 664 K, NMI 1576 K, NMI 1712 K, NMI 1991 K, and NMI 2541 K. All strains were stored at −80 °C. Prior to testing, each bacterial strain was subcultured twice on tryptic soy agar TSA (bioMerieux) medium and yeast strains on Sabouraud dextrose agar (bioMerieux) for 24–48 h at 30 °C to ensure viability. The antimicrobial activity was evaluated as previously described[26] by the disc-diffusion method and the MIC determination assays according to the EUCAST (ref. [71] and [72]) and CLSI (ref. [53] and [73]) recommendations. Assessment of bactericidal (MBC) and fungicidal (MFC) activities was performed according to the CLSI recommendations.[54,74] The following reference agents were used: fluconazole (in the case of fungi), linezolid (for Gram-positive bacteria), and nitrofurantoin (for Gram-negative rods). The new benzosiloxaboroles were dissolved in DMSO (Sigma).

K. pneumoniae ATCC 13883 = test: Antibacterial activity: MIC/MBC, MIC with PAβN, disc-diffusion; type: cell-based, Klebsiella pneumoniae; conditions: K. pneumoniae ATCC 13883; for MIC: Klebsiella pneumoniae, ATCC13883, read-out: MIC
Procedure: as §1, with “The following reference agents were used: fluconazole (in the case of fungi), linezolid (for Gram-positive bacteria), and nitrofurantoin (for Gram-negative rods).” left out
(§2) Considering that the MDR efflux pumps often contribute to Gram-negative rod resistance, the MIC values of studied agents, with or without the pump inhibitor, PAβN (20 μg mL^−1) (Sigma), were determined.[75] The MIC was determined using Mueller–Hinton II broth medium (MHB) (Becton Dickinson) by the broth microdilution method, according to the CLSI guideliness.[53] To minimize the influence of PAβN on the destabilization of bacterial cell covers, the tests were conducted in the presence of 1 mM MgSO4 (Sigma).[76] At least a 4-fold reduction in the MIC value after the addition of PAβN was considered significant.[56,77]

E. coli ATCC 25922 = test: as above; type: cell-based, Escherichia coli; conditions: E. coli ATCC 25922; for -fold reduction of MIC in the presence of PAβN: PAβN 20 μg mL^−1, MHB + 1 mM MgSO4; for MIC: read-out: MIC
Procedure: as §1, with “The following reference agents were used: fluconazole (in the case of fungi), linezolid (for Gram-positive bacteria), and nitrofurantoin (for Gram-negative rods).” left out
as §2

B. cepacia ATCC 25416 = test: Antibacterial activity: MIC/MBC, disc-diffusion; type: cell-based, Burkholderia cepacia; conditions: Burkholderia cepacia, ATCC25416; B. cepacia ATCC 25416; read-out: MIC
Procedure: as §1, with “The following reference agents were used: fluconazole (in the case of fungi), linezolid (for Gram-positive bacteria), and nitrofurantoin (for Gram-negative rods).” left out
as §2

[1] = test system: B. bronchiseptica ATCC 4617; test: Antibacterial activity: MIC/MBC, disc-diffusion; type: cell-based, Bordetella bronchiseptica; conditions: B. bronchiseptica ATCC 4617; for MIC: read-out: MIC
Procedure: as §1, with “The following reference agents were used: fluconazole (in the case of fungi), linezolid (for Gram-positive bacteria), and nitrofurantoin (for Gram-negative rods).” left out
as §2

S. cerevisiae ATCC 9763 = test: Antifungal activity: MIC/MFC, disc-diffusion; type: cell-based, Saccharomyces cerevisiae; conditions: Saccharomyces cerevisiae, ATCC9763; read-out: MIC
Procedure: as §1

C. tropicalis ATCC 750 = test: Antifungal activity: MIC/MFC, disc-diffusion; type: cell-based; conditions: Candida tropicalis, ATCC750; read-out: MIC
Procedure: as §1

[2] = test system: C. parapsilosis ATCC 22019; test: Antifungal activity: MIC/MFC, disc-diffusion; type: cell-based; conditions: Lodderomyces parapsilosis, ATCC22019; read-out: MIC
Procedure: as §1

[3] = test system: C. guilliermondii IBA 155; test: Antifungal activity: MIC/MFC, disc-diffusion; type: cell-based; conditions: Meyerozyma guilliermondii, IBA155; read-out: MIC
Procedure: as §1

C. tropicalis IBA 171 = test: Antifungal activity: MIC/MFC, disc-diffusion; type: cell-based; conditions: Candida tropicalis, IBA171; read-out: MIC
Procedure: as §1

S. marcescens ATCC 13880 = test: Antibacterial activity: MIC/MBC, MIC with PAβN, disc-diffusion; type: cell-based, Serratia marcescens; conditions: S. marcescens ATCC 13880; for MIC: Serratia marcescens, ATCC13880, read-out: MIC
Procedure: as §1, with “The following reference agents were used: fluconazole (in the case of fungi), linezolid (for Gram-positive bacteria), and nitrofurantoin (for Gram-negative rods).” left out
as §2

[4] = Bordetella bronchiseptica, ATCC4617
[5] = (-) = zone not observed, paper discs 9 mm
[6] = PAβN 20 μg mL^−1, MHB + 1 mM MgSO4

Row | Compound | MIC (C. albicans ATCC 90028) [µg/mL] | MIC (K. pneumoniae ATCC 13883) [µg/mL] | -fold reduction of MIC in the presence of PAβN (E. coli ATCC 25922) | MIC (E. coli ATCC 25922; Escherichia coli, ATCC25922) [µg/mL] | MIC (B. cepacia ATCC 25416) [µg/mL] | MIC [1, 4] [µg/mL] | MIC (S. cerevisiae ATCC 9763) [µg/mL] | MIC (C. tropicalis ATCC 750) [µg/mL] | MIC [2] [µg/mL] | MIC [3] [µg/mL] | MIC (C. tropicalis IBA 171) [µg/mL] | MIC (S. marcescens ATCC 13880) [µg/mL] | diameter of inhibition zone (K. pneumoniae ATCC 13883; [5]) [mm] | -fold reduction of MIC in the presence of PAβN (K. pneumoniae ATCC 13883; [6]) | diameter of inhibition zone (E. coli ATCC 25922; [5]) [mm] | MBC (E. coli ATCC 25922; Escherichia coli, ATCC25922) [µg/mL] | diameter of inhibition zone [1, 5] [mm] | MBC [1, 4] [µg/mL] | diameter of inhibition zone (S. marcescens ATCC 13880; [5]) [mm] | -fold reduction of MIC in the presence of PAβN (S. marcescens ATCC 13880; [6])
1 | C[Si]1(C)OB(O)c2cc(F)c(SCCC(N)=O)c(F)c21 [Compound 7, 3-((5,7-Difluoro-3-hydroxy-1,1-dimethyl-1,3-dihydrobenzo[c][1,2,5]oxasilaborol-6-yl)thio)propanamide] | > 400 | > 400 | 4 -fold | > 400 | > 400 | > 400 | > 400 | > 400 | > 400 | > 400 | > 400 | > 400 |  |  |  |  |  |  |  | 
2 | C[Si]1(C)OB(O)c2cc(F)c(S(N)(=O)=O)c(F)c21 [Compound 27, 5,7-Difluoro-3-hydroxy-1,1-dimethyl-1,3-dihydrobenzo[c][1,2,5]oxasilaborole-6-sulfonamide] | > 400 | > 400 | 2 -fold | > 400 | > 400 | > 400 | > 400 | > 400 | > 400 | > 400 | > 400 | > 400 |  |  |  |  |  |  |  | 
3 | Cc1cc(NC(=O)CCSc2c(F)cc3c(c2F)[Si](C)(C)OB3O)no1 [Compound 11, 3-((5,7-Difluoro-3-hydroxy-1,1-dimethyl-1,3-dihydrobenzo[c][1,2,5]oxasilaborol-6-yl)thio)-N-(5-methylisoxazol-3-yl)propanamide] | > 400 | > 400 |  | > 400 | > 400 | > 400 | > 400 | > 400 | > 400 | > 400 | > 400 | > 400 |  |  |  |  |  |  |  | 
4 | C[Si]1(C)OB(O)c2cc(F)c(SC3CC(=O)NC3=O)c(F)c21 (stereo not drawn) [Compound 12, 3-((5,7-Difluoro-3-hydroxy-1,1-dimethyl-1,3-dihydrobenzo[c][1,2,5]oxasilaborol-6-yl)thio)pyrrolidine-2,5-dione] | > 400 | 400 (≈ 1170 µM) |  | 50 (≈ 146 µM) | > 400 | 12.5 (≈ 36.4 µM) | > 400 | > 400 | > 400 | > 400 | > 400 | 200 (≈ 583 µM) | 17 | 4 -fold | 17 | 200 (≈ 583 µM) | 25 | 50 (≈ 146 µM) | 28 | 2 -fold

From article PMC11110727, “Exploiting thiol-functionalized benzosiloxaboroles for achieving diverse substitution patterns – synthesis, characterization and biological evaluation of promising antibacterial agents” (RSC Medicinal Chemistry, 2024)
